{"source": "patent US20160229839A1", "about": "“Factor XIa Inhibitors” (Merck Sharp & Dohme Corp., priority 2013, published 2016)"}
{"target": "T1, purified human Factor XIa (Homo sapiens, UniProt P03951)", "T1 construct": "purified human Factor XIa; purchased Sekisui Diagnostics", "T1 sequence (P03951 388-625 limits assumed)": "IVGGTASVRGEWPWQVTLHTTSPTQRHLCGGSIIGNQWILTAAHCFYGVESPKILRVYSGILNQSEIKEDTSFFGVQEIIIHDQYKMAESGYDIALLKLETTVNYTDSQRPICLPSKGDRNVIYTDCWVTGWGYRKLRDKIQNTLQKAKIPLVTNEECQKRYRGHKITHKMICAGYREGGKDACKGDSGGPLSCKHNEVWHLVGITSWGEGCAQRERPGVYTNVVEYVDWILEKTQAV", "T1 sequence (P03951 19-387 partner limits assumed)": "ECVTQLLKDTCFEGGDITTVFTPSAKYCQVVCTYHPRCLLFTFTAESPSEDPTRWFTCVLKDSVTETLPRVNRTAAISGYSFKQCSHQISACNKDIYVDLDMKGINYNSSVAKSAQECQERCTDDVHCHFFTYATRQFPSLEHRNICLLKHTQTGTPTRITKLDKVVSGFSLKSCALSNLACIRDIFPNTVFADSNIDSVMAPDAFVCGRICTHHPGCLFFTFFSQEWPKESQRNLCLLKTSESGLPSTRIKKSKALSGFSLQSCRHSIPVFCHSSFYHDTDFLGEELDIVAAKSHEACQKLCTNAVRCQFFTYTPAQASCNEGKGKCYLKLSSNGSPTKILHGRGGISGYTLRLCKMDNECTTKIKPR", "experiment": "Factor XIa Assay (fluorogenic substrate Z-Gly-Pro-Arg-AFC)", "format": "biochemical", "conditions": "purified human Factor XIa 40 pM; Z-Gly-Pro-Arg-AFC 100 μM; 50 mM HEPES pH 7.4; read-out: hFXIa Ki (nM), Factor XIa inhibition", "description": "The effectiveness of compound of the present invention as inhibitors of Coagulation Factor XIa can be determined using a relevant purified serine protease, and an appropriate synthetic substrate. The rate of hydrolysis of the chromogenic or fluorogenic substrate by the relevant serine protease was measured both in the absence and presence of compounds of the present invention. Assays were conducted at room temperature or at 37° C. […] A decrease in the rate of fluorescence change in the presence of inhibitor is indicative of enzyme inhibition. Such methods are known to one skilled in the art. The results of this assay are expressed as the inhibitory constant, Ki.\nFactor XIa determinations were made in 50 mM HEPES buffer at pH 7.4 containing 150 mM NaCl, 5 mM CaCl2, and 0.1% PEG 8000 (polyethylene glycol; J T Baker or Fisher Scientific). Determinations were made using purified human Factor XIa at a final concentration of 40 pM (Sekisui Diagnostics) and he synthetic substrate, Z-Gly-Pro-Arg-AFC, TFA salt (Sigma #C0980) at a concentration of 100 μM.\nActivity assays were performed by diluting a stock solution of substrate at least tenfold to a final concentration ≦0.1 Km into a solution containing enzyme or enzyme equilibrated with inhibitor. Times required to achieve equilibration between enzyme and inhibitor were determined in control experiments. Initial velocities of product formation in the absence (Vo) or presence of inhibitor (Vi) were measured. Assuming competitive inhibition, and that unity is negligible compared Km/[S], [I]/e, and [I]/e (where [S], [I], and e respectively represent the total concentrations, of substrate, inhibitor and enzyme), the equilibrium constant (Ki) for dissociation of the inhibitor from the enzyme can be obtained from the dependence of Vo/Vi on [I] shown in the following equation.", "units": {"Ki": "nM"}}
{"compound": "CC(C)(C)OC(=O)C1CCC(NC(=O)C2C(C3CCCCC3)CCCN2C(=O)/C=C/c2cc(Cl)ccc2-n2cnnn2)CC1", "note": "(centres unmarked) [Example 1-4, (E)-tert-butyl 4-(1-(3-(5-chloro-2-(1H-tetrazol-1-yl)phenyl)acryloyl)-3-cyclohexylpiperidine-2-carboxamido)cyclohexanecarboxylate]", "Ki": "> 10000"}
{"compound": "O=C(CCc1cc(Cl)ccc1-n1cnnn1)N1CCCC(c2ccccc2)C1c1nc(-c2ccc(Cl)cc2)c[nH]1", "note": "(centres unmarked) [Example 1-23, 3-(5-chloro-2-(1H-tetrazol-1-yl)phenyl)-1-(2-(4-(4-chlorophenyl)-1H-imidazol-2-yl)-3-phenylpiperidin-1-yl)propan-1-one]", "Ki": "> 10000"}
{"compound": "NC1CCc2cc(C(=O)N3CCCC(c4ccccc4)C3C(=O)Nc3ccc(C(=O)O)cc3)ccc21", "note": "(racemic) [Example 1-14, 4-(1-(1-amino-2,3-dihydro-1H-indene-5-carbonyl)-3-phenylpiperidine-2-carboxamido)benzoic acid]", "Ki": 572}
{"compound": "O=C(Nc1ccc2[nH]ncc2c1)C1C(c2ccccc2)CCCN1C(=O)/C=C/c1cc(Cl)ccc1-n1cnnn1", "note": "(centres unmarked) [Example 1-59, (E)-1-(3-(5-chloro-2-(1H-tetrazol-1-yl)phenyl)acryloyl)-N-(1H-indazol-5-yl)-3-phenylpiperidine-2-carboxamide]", "Ki": 13.9}
{"compound": "O=C(/C=C/c1cc(Cl)ccc1-n1cnnn1)Nc1ccc(C2CCCN(C(=O)/C=C/c3cc(Cl)ccc3-n3cnnn3)C2C(=O)Nc2ccc(C(=O)O)cc2)cc1", "note": "(centres unmarked) [Example 1-34, 4-(3-(4-((E)-3-(5-chloro-2-(1H-tetrazol-1-yl)phenyl)acrylamido)phenyl)-1-((E)-3-(5-chloro-2-(1H-tetrazol-1-yl)phenyl)acryloyl)piperidine-2-carboxamido)benzoic acid]", "Ki": 24.9}
{"compound": "O=C(/C=C/c1cc(Cl)ccc1-n1cnnn1)N1CCCC(c2ccccc2)C1c1nc(-c2ccc(F)cc2)c[nH]1", "note": "(centres unmarked) [Example 1-13, (E)-3-(5-chloro-2-(1H-tetrazol-1-yl)phenyl)-1-(2-(4-(4-fluorophenyl)-1H-imidazol-2-yl)-3-phenylpiperidin-1-yl)prop-2-en-1-one]", "Ki": "> 10000"}
{"compound": "COC(=O)Nc1ccc(-c2c[nH]c([C@@H]3[C@H](CO[Si](C)(C)C(C)(C)C)CCCN3C(=O)/C=C/c3cc(Cl)ccc3-n3cnnn3)n2)cc1", "note": "[Example 1-66, methyl (4-(2-((2S,3R)-3-(((tert-butyldimethylsilyl)oxy)methyl)-1-((E)-3-(5-chloro-2-(1H-tetrazol-1-yl)phenyl)acryloyl)piperidin-2-yl)-1H-imidazol-4-yl)phenyl)carbamate]", "Ki": 3910}
{"compound": "CC(C)(N)c1ccc(C(=O)N2CCCC(c3ccccc3)C2C(=O)Nc2ccc(C(=O)O)cc2)cc1", "note": "(centres unmarked) [Example 1-15, 4-(1-(4-(2-aminopropan-2-yl)benzoyl)-3-phenylpiperidine-2-carboxamido)benzoic acid]", "Ki": "> 10000"}
{"compound": "O=C1Cc2cc(-c3cnc([C@@H]4[C@H](c5ccccc5)CCCN4C(=O)/C=C/c4cc(Cl)ccc4-n4cnnn4)[nH]3)ccc2N1", "note": "[Example 1-63, 5-(2-((2S,3S)-1-((E)-3-(5-chloro-2-(1H-tetrazol-1-yl)phenyl)acryloyl)-3-phenylpiperidin-2-yl)-1H-imidazol-5-yl)indolin-2-one]", "Ki": 207}
{"compound": "O=C(/C=C/c1cc(Cl)ccc1-n1cnnn1)N1CCC[C@@H](c2ccccc2)[C@H]1c1nc2cc(F)ccc2[nH]1", "note": "[Example 1-68, (E)-3-(5-chloro-2-(1H-tetrazol-1-yl)phenyl)-1-((2S,3S)-2-(5-fluoro-1H-benzo[d]imidazol-2-yl)-3-phenylpiperidin-1-yl)prop-2-en-1-one]", "Ki": 428}
{"compound": "NCc1ccc(C(=O)N2CCCC(c3ccccc3)C2C(=O)Nc2ccc(C(=O)O)cc2)cc1C1CC1", "note": "(centres unmarked) [Example 1-43, (4-(2-((4-carboxyphenyl)carbamoyl)-3-phenylpiperidine-1-carbonyl)-2-cyclopropylphenyl)methanaminium 2,2,2-trifluoroacetate]", "Ki": 169}
{"compound": "O=C(Nc1ccc2[nH]ncc2c1)[C@@H]1[C@H](c2ccccc2)CCCN1C(=O)/C=C/c1cc(Cl)ccc1-n1cnnn1", "note": "[Example 1-65, (2S,3S)-1-((E)-3-(5-chloro-2-(1H-tetrazol-1-yl)phenyl)acryloyl)-N-(1H-indazol-5-yl)-3-phenylpiperidine-2-carboxamide]", "Ki": 31.4}
{"compound": "O=C(/C=C/c1cc(Cl)ccc1-n1cnnn1)N1CCCC(c2ccccc2)C1c1nc(-c2cccnc2)c[nH]1", "note": "[Example 1-12, (E)-3-(5-chloro-2-(1H-tetrazol-1-yl)phenyl)-1-(3-phenyl-2-(4-(pyridin-3-yl)-1H-imidazol-2-yl)piperidin-1-yl)prop-2-en-1-one (2S,3S)]", "Ki": 570}
{"compound": "O=C(/C=C/c1cc(Cl)ccc1-n1cnnn1)N1CCCC(c2ccccc2)C1c1nc(-c2ccc(Cl)cc2)c[nH]1", "note": "(centres unmarked) [Example 1-21, (E)-3-(5-chloro-2-(1H-tetrazol-1-yl)phenyl)-1-(2-(4-(4-chlorophenyl)-1H-imidazol-2-yl)-3-phenylpiperidin-1-yl)prop-2-en-1-one]", "Ki": "> 10000"}
{"compound": "N[C@H]1CCc2cc(C(=O)N3CCCC(c4ccccc4)C3C(=O)Nc3ccc(C(=O)O)cc3)ccc21", "note": "(stereo partly drawn) [Example 1-16, 4-(1-((S)-1-amino-2,3-dihydro-1H-indene-5-carbonyl)-3-phenylpiperidine-2-carboxamido)benzoic acid]", "Ki": 619}
{"compound": "NCC1CCC(C(=O)N2CCCC(c3ccccc3)C2C(=O)Nc2ccc(C(=O)O)cc2)CC1", "note": "(centres unmarked) [Example 1-39, (4-(2-((4-carboxyphenyl)carbamoyl)-3-phenylpiperidine-1-carbonyl)cyclohexyl)methanaminium 2,2,2-trifluoroacetate]", "Ki": 45.6}
{"compound": "O=C(O)c1ccc(-c2c[nH]c(C3C(c4ccccc4)CCCN3C(=O)/C=C/c3cc(Cl)ccc3-n3cnnn3)n2)cc1", "note": "(centres unmarked) [Example 1-45, (E)-4-(2-(1-(3-(5-chloro-2-(1H-tetrazol-1-yl)phenyl)acryloyl)-3-phenylpiperidin-2-yl)-1H-imidazol-4-yl)benzoic acid]", "Ki": 2820}
